Measurements published in patent US5066658A, “Substituted hydroxyureas” (Ortho Pharmaceutical Corporation, priority 1990, dated 1991).

Columns and labels:
[1] = tested on: Arachidonate-Induced Ear Edema; test: Arachidonic Acid-Induced Ear Edema Assay; assay type: in vivo; conditions: topical, mouse ear; for inhibition in vivo at 0.4 mg: 400 μg topically; for inhibition in vivo at 0.2 mg: 200 μg topically
Experimental: The topical anti-inflammatory activity of a compound was determined by its ability to inhibit an experimentally-induced inflammation in the mouse ear. Basically, four milligrams of arachidonic acid in acetone were applied to the dorsal surface of one ear with a microliter pipette. The mice were sacrificed at various times after application of arachidonic acid (one-half to six hours). A section of each ear was removed with a 7 mm round punch and weighed on an electronic or analytical balance. The difference in weight between treated and untreated ears was determined. Compounds to be evaluated for anti-inflammatory activity can be incorporated directly into the irritant mixture or at various times prior to or after application of arachidonic acid.
The degree of anti-inflammatory activity is shown in Table I, and is expressed in terms of the percent inhibition of ear weight increase.

[2] = biological target: T1, 5-lipoxygenase (Rattus norvegicus, UniProt P12527); test: Inhibition of 5-lipoxygenase in cell-free homogenate of rat basophilic leukemia (RBL-1) cells; assay type: biochemical; conditions: RBL-1 cell-free homogenate; for inhibition at 3 µM: read-out: Inhibition of 5-Lipoxygenase, % Inh. @ 3 μM
T1 construct: The cell-free homogenate was prepared by sonication of the cells followed by centrifugation at 40,000 xg; endogenous in cells; host or cells: RBL-1 (rat basophilic leukemia) cells, 40,000 xg supernatant of the sonicate
T1 sequence (P12527 1-673): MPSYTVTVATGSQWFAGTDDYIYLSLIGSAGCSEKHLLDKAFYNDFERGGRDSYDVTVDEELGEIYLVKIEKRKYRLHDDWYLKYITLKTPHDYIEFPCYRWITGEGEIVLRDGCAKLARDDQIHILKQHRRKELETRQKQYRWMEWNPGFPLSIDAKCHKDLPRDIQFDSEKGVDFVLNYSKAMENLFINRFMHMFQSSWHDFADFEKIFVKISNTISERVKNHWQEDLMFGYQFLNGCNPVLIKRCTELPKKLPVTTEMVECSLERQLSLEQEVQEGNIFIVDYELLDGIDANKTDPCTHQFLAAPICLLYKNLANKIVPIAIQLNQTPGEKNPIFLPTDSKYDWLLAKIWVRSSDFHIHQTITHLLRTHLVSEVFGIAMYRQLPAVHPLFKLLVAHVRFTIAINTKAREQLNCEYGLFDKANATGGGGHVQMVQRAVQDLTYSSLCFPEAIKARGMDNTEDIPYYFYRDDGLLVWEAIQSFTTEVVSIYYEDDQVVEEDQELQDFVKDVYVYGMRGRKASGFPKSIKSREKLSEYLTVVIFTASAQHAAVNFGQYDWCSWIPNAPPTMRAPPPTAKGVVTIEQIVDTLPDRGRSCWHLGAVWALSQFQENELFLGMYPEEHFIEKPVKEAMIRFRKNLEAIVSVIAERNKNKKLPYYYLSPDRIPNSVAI
Experimental: The inhibition of 5-lipoxygenase was tested in a cell-free homogenate by the procedure of B. Jakschik et al., Biochem.Biophys.Res.Comm. 95, 103 (1980). Basically, rat basophilic leukemia cells (RBL-1 cells) were maintained in culture in a suitable medium, and were collected by centrifugation prior to assay. The cell-free homogenate was prepared by sonication of the cells followed by centrifugation at 40,000 xg. The CaCl2 dependent production of lipoxygenase products from ^14 C-arachidonic acid in the 40,000 xg supernatant was monitored in the presence of buffer (or other vehicle) or drug. Products were isolated by acidification and extraction, followed by thin layer chromatography. Radioactive areas corresponding to the authentic lipoxygenase products were quantitated by liquid scintillation counting. Data was reported as the IC50, the concentration causing 50% inhibition of the generation of lipoxygenase products. The results are shown it Table I as the percent inhibition at 3 μM or the amount of compound necessary to cause 50% inhibition.

[3] = tested on: Arachidonate-Induced Bronchospasm (lipoxygenase); test: Pulmonary Mechanics Assay: arachidonate-induced bronchospasm with indomethacin (SRS-A response, indicative of lipoxygenase inhibition); assay type: in vivo, male Hartley guinea pigs; conditions: Cavia porcellus, guinea pig; for inhibition in vivo at 15 mg/kg: IV dosing, read-out: Inhibition of Arachidonate-Induced Bronchospasm (IV Dosing), % Inh. with Indomethacin
Experimental: (§1) The bronchodilating activity of the compounds was tested in a pulmonary mechanics assay. Basically, male Hartley guinea pigs (about 400-500 g) were anesthetized with urethane (2 g/kg, i.p.) and placed in a whole body Plethysmograph. Cannulations of a jugular vein and carotid artery were performed for compound administration and monitoring blood pressure, respectively. The trachea was cannulated for respiration at a constate volume via a miniature starling pump. A Validyne differential pressure transducer (±20 cm H2 O) sensed transpleural pressure via a 15 gauge needle inserted into the pleural cavity and a sidearm from the tracheal cannula. Tidal volume was sensed by another Validyne differential pressure transducer (±2 cm H2 O) from pressure changes inside the plethysmograph. An on-line Buxco pulmonary mechanics computer calculated air flow, dynamic lung compliance and lung resistance. The values were recorded on a print-out.
(§2) The guinea pigs were pretreated with succinyl choline (1.2 mg/kg, i.v.) to arrest spontaneous respiration. A control challenge of arachidonic acid (0.5-1.0 mg/kg, i.v.) was administered, and the animals were then dosed with the test compound by various routes. At least 10 minutes were allowed to expire between arachidonic acid challenges. A second challenge was given and compared to the control response. This comparison was indicative of cyclooxygenase inhibition. Indomethacin (10 mg/kg, i.v.) was administered immediately after the second challenge. A third challenge of a higher dose of arachidonic acid (5-10 mg/kg, i.v.) was given. This response was induced by SRS-A and compared to the responses elicited by a separate control group of animals. Activity was indicative of lipoxygenase inhibition. Propranolol (0.005 mg/kg. i.v.) may be given prior to the third challenge to enhance the response to SRS-A.
(§3) Bronchoconstriction induced by arachidonic acid with or without indomethacin was expressed as maximum percent change in dynamic lung compliance (Cdyn) and maximum percent increase in lung resistance (RL). Each guinea pig served as its own control for cyclooxygenase evaluation. The results are shown in Table I and are expressed as the percent inhibition of control.

[4] = tested on: Arachidonate-Induced Bronchospasm (cyclooxygenase); test: Pulmonary Mechanics Assay: arachidonate-induced bronchospasm without indomethacin (indicative of cyclooxygenase inhibition); assay type: in vivo, male Hartley guinea pigs; conditions: Cavia porcellus, guinea pig; for inhibition in vivo at 15 mg/kg: IV dosing, read-out: Inhibition of Arachidonate-Induced Bronchospasm (IV Dosing), % Inh. without Indomethacin
Experimental: as §1, §2, §3

[5] = read-out: Inhibition of Arachidonate-Induced Ear Edema, % Inh. (μg topically)
[6] = ID dosing, read-out: Inhibition of Arachidonate-Induced Bronchospasm (ID Dosing), % Inh. with Indomethacin
[7] = ID dosing, read-out: Inhibition of Arachidonate-Induced Bronchospasm (ID Dosing), % Inh. without Indomethacin

| inhibition at 3 µM [2] [%] | Compound | inhibition in vivo at 50 mg/kg [3, 6] [%] | inhibition in vivo at 50 mg/kg [4, 7] [%] | also measured |
| --- | --- | --- | --- | --- |
| 100 | CCCCCCCCCCN(O)C(=O)NCC(=O)OCC [Example 3, N-(Ethoxycarbonyl)methyl-N'-decyl-N'-hydroxyurea] |  |  | inhibition in vivo at 0.4 mg [1, 5]: 51% |
| 93 | CCCCCCCCCN(O)C(=O)N(C)C [Example 8, N,N-Dimethyl-N'-nonyl-N'-hydroxyurea] |  |  | inhibition in vivo at 0.2 mg [1, 5]: 95% |
| 64 | CCCCCCCN(O)C(=O)N(C)C [Example 9, N,N-Dimethyl-N'-heptyl-N'-hydroxyurea] |  |  | Inhibition of Arachidonate-Induced Ear Edema, ED50 [1]: 55 µg |
| 65 | CCCCCCCCCC(C)(C)NC(=O)N(C)O [Example 20, N-(1,1-Dimethyldecyl)-N'-methyl-N'-hydroxyurea] |  |  | inhibition in vivo at 0.1 mg ([1]; 100 μg topically, read-out: Inhibition of Arachidonate-Induced Ear Edema, % Inh. (μg topically)): 47% |
|  | CCCCCCCCN1CCN(O)C1=O [Example 24, 1-Octyl-3-hydroxyimidazolidin-2-one] |  |  | inhibition in vivo at 0.2 mg [1, 5]: 27%; IC50 [2]: 5200 nM |
|  | CCCCCCCCCCN1CCCN(O)C1=O [Example 26, 1-Decyl-3-hydroxy-3,4,5,6-tetrahydro-lH-pyrimidin-2-one] |  |  | inhibition in vivo at 0.4 mg [1, 5]: 30%; IC50 [2]: 700 nM |
|  | CCCCCCCCCCN1C(=O)N(O)CC1C(=O)OCC (centres unmarked) [Example 27, Ethyl 3-decyl-1-hydroxyimidazolidin-2-one-4-carboxylate] |  |  | inhibition in vivo at 0.4 mg [1, 5]: 13%; IC50 [2]: 1400 nM |
| 65 | CN(O)C(=O)NCCc1ccc2c(c1)OCO2 [Example 43, N-[2-(3,4-Methylenedioxy)phenyl)ethyl-N'-hydroxy-N'-methylurea] | < 20 | < 20 |  |
| 33 | COc1cccc(CCNC(=O)N(C)O)c1OC [Example 44, N-[2-(2,3-Dimethoxyphenyl)ethyl]-N'-hydroxy-N'-methylurea] | 58 | < 20 |  |
| 99 | COc1ccc(CCNC(=O)N(C)O)c(OC)c1 [Example 49, N-[2-(2,4-Dimethoxyphenyl)ethyl]-N'-hydroxy-N'-methylurea] |  |  | inhibition in vivo at 15 mg/kg [3]: 67%; inhibition in vivo at 15 mg/kg [4]: 39% |
| 59 | CN(O)C(=O)NCCc1ccc(Cl)c(Cl)c1 [Example 50, N-[2-(3,4-Dichlorophenyl)ethyl]-N'-hydroxy-N'-methylurea] | < 20 | < 20 |  |
| 0 | COc1ccc(CCN(C)C(=O)N(C)O)cc1OC [Example 53, N-[2-(3,4-Dimethyoxyphenyl)ethyl]-N'-hydroxy-N,N'-dimethylurea] |  |  | inhibition in vivo at 25 mg/kg ([3]; ID dosing, 25 mg/kg, read-out: Inhibition of Arachidonate-Induced Bronchospasm (ID Dosing), % Inh. with Indomethacin): 71%; inhibition in vivo at 15 mg/kg [3]: 51%; inhibition in vivo at 25 mg/kg ([4]; ID dosing, 25 mg/kg, read-out: Inhibition of Arachidonate-Induced Bronchospasm (ID Dosing), % Inh. without Indomethacin): 52%; inhibition in vivo at 15 mg/kg [4]: 79% |
| 42 | C=CCOc1ccc(CCNC(=O)N(C)O)cc1OC [Example 55] | 56 | -68 | inhibition in vivo at 15 mg/kg [3]: 83%; inhibition in vivo at 15 mg/kg [4]: 56% |
| 37 | COc1ccc(C2C3C=CC(C3)C2NC(=O)N(C)O)cc1OC (stereo not drawn) [Example 58, N-[trans-3-(3,4-Dimethoxyphenyl)bicyclo[2.2.1]-5-hepten-2-yl]-N'-hydroxy-N'-methylurea] | 68 | 35 |  |
| 51 | COc1cc2c(cc1OC)C(CNC(=O)N(C)O)CC2 (centres unmarked) [Example 60, N-[(5,6-Dimethoxyindan-1-yl)methyl]-N'-hydroxy-N'-methylurea] |  |  | inhibition in vivo at 15 mg/kg [3]: 67%; inhibition in vivo at 15 mg/kg [4]: 48% |
| 73 | COc1cc2c(cc1OC)CC(NC(=O)N(C)O)CC2 (centres unmarked) [Example 61, N-(6,7-Dimethoxy-1,2,3,4-tetrahydro-2-naphthyl)-N'-hydroxy-N'-methylurea] |  |  | inhibition in vivo at 15 mg/kg [3]: < 20%; inhibition in vivo at 15 mg/kg [4]: < 20% |
| 76 | COc1ccc(CCCN(CCCc2ccc(OC)c(OC)c2)C(=O)N(C)O)cc1OC [Example 63, N,N-Bis-[3-(3,4-dimethoxyphenyl)propyl]-N'-hydroxy-N'-methylurea] | 21 | < 20 |  |
| 19 | COc1ccc(CCCNC(=O)N(C)O)cc1OC [Example 65, N-[3-(3,4-Dimethoxyphenyl)propyl]-N'-hydroxy-N'-methylurea] | 59 | 52 | inhibition in vivo at 15 mg/kg [3]: 89%; inhibition in vivo at 15 mg/kg [4]: 86% |
| 69 | COc1cc(CCNC(=O)N(C)O)ccc1OCc1ccccc1 [Example 68, N-[2-(4-Benzyloxy-3-methoxyphenyl)ethyl]-N'-hydroxy-N'-methylurea] | 28 | < 20 |  |
| 39 | COc1cc(CCNC(=O)N(C)O)ccc1O [Example 70, N-[2-(4-Hydroxy-3-methoxyphenyl)ethyl]-N'-hydroxy-N'-methylurea] | < 20 | < 20 |  |
| 5 | COc1ccc(CCNC(=O)N(C)O)cc1O [Example 71, N-[2-(3-Hydroxy-4-methoxyphenyl)ethyl]-N'-hydroxy-N'-methylurea] | < 20 | 77 |  |
| 21 | COc1ccc(CCNC(=O)NO)cc1OC [Example 72, N-[2-(3,4-Dimethoxyphenyl)ethyl]-N'-hydroxyurea] | 56 | 50 |  |
